Test results from ChEMBL document CHEMBL1127227, “1H-1,2,4-triazole angiostensin II receptor antagonists: qC-linkedq analogs of SC-50560” (Bioorg Med Chem Lett, 1994).
Where “and” joins values, the source holds several entries; their conditions need not be identical. Equal values may be shown once.

Assays:
[1] = target: T1, Angiotensin II receptor (Rattus norvegicus, UniProt P29089+P25095+P35351); test: Inhibition of [125I]- AII binding to rat uterine membrane angiotensin II receptor
T1 sequence (P29089 whole entry): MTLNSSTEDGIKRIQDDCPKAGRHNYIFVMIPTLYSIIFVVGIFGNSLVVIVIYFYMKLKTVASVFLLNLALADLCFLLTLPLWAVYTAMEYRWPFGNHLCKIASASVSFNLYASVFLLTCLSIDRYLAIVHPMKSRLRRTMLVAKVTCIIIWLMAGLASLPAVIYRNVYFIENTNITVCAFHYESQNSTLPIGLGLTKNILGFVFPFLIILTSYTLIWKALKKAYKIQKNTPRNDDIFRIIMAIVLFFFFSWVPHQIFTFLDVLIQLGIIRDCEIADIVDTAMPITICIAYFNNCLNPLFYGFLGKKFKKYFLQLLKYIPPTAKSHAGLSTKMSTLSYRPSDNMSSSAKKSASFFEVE
T1 sequence (P25095 whole entry): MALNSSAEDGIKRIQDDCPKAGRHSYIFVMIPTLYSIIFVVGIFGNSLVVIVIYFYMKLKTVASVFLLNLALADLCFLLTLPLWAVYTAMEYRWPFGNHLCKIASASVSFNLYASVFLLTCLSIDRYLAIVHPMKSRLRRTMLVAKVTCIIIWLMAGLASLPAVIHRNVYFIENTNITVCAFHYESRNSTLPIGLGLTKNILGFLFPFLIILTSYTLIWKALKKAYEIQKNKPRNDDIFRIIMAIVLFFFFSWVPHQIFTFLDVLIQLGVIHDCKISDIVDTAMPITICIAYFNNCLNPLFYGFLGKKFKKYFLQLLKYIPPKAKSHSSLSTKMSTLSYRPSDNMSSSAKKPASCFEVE
T1 sequence (P35351 whole entry): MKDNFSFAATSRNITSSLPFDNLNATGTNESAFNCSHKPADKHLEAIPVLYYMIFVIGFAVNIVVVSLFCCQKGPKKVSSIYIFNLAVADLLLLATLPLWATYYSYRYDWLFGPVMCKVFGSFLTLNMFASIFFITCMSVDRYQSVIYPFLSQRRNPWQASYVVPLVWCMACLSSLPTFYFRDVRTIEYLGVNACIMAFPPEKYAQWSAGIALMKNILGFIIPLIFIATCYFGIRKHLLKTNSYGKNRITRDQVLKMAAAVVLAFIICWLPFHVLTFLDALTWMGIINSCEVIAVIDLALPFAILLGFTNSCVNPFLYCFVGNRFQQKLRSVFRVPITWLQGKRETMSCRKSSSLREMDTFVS

[2] = species: Oryctolagus cuniculus; test: Antagonism of AII-contracted rabbit aortic rings; type: functional, organism-based, Aorta; conditions: for Kb: Oryctolagus cuniculus, Aorta, read-out: pA2 (converted)

Row | SMILES | IC50 [1] | Kb [2] [nM] | pA2 [2]
1 | CCCCc1nc(C(F)(F)c2ccc(-c3ccccc3-c3nn[nH]n3)cc2)n(CCCC)n1 | 710 nM |  | 
2 | CCCCc1nc(Cc2ccc(-c3ccccc3-c3nnn(C(c4ccccc4)(c4ccccc4)c4ccccc4)n3)cc2)n(CCCC)n1 | 140 nM |  | 
3 | CCCCc1nc(Cc2ccc(-c3ccccc3C(=O)O)cc2)n(CCCC)n1 | 240 nM | 79.4 | 
4 | CCCCc1nc(Cc2ccc(-c3ccccc3-c3nn[nH]n3)cc2)nn1CCCC | 12000 nM and 6700 nM | 10000 | 5.3
5 | CCCCc1nc(Cc2ccc(-c3ccccc3-c3nn[nH]n3)cc2)n(CCCC)n1 | 16 nM | 3.16 | 
6 | CCCCn1nc(CCc2ccccc2)nc1Cc1ccc(-c2ccccc2-c2nn[nH]n2)cc1 | 9.5 nM | 12.6 | 
7 | CCCCc1nc(C(C)c2ccc(-c3ccccc3-c3nn[nH]n3)cc2)n(CCCC)n1 (stereo not drawn) | 29000 nM |  | 
8 | CCCCn1nc(C(F)(F)CCC)nc1Cc1ccc(-c2ccccc2-c2nn[nH]n2)cc1 | 40 nM | 10 | 
9 | CCCCc1nc(C(=O)c2ccc(-c3ccccc3-c3nn[nH]n3)cc2)n(CCCC)n1 | 32000 nM |  | 
10 | CCCCc1nc(C(O)c2ccc(-c3ccccc3-c3nn[nH]n3)cc2)n(CCCC)n1 (stereo not drawn) | 1800 nM | 251 | 
11 | CCCCc1nc(CCCC)n(Cc2ccc(-c3ccccc3-c3nn[nH]n3)cc2)n1 |  | 2 | 
